Measurements published in ChEMBL document CHEMBL1201862, “PubChem BioAssay data set” (2004).
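Dose response: 5 concentrations. Exposure: 48 h. Format: 96-well plates. Endpoint: linear interpolation; highest concentration if not reached. Abbreviation: GI50, concentration required for 50% inhibition of growth.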 Activity calls are given as the source filed them. Rule as the data show it: active = GI50 up to about 1.1 µM and inactive = higher.

Legend:
Assay in all cases: inhibition of tumour cell growth, NCI panel, 48 h
K562 = system: K562
SK-MEL-2 = system: SK-MEL-2
KM12 = system: KM12
PC-3 = system: PC-3
SW-620 = system: SW-620
UACC-257 = system: UACC-257
T47D = system: T47D
SF-295 = system: SF-295
OVCAR-3 = system: OVCAR-3
SK-MEL-5 = system: SK-MEL-5
SR = system: SR
BT-549 = system: BT-549
SK-OV-3 = system: SK-OV-3
RPMI-8226 = system: RPMI-8226
MDA-N = system: MDA-N
SF-539 = system: SF-539
HOP-92 = system: HOP-92
Malme-3M = system: Malme-3M
NCI-H522 = system: NCI-H522
OVCAR-5 = system: OVCAR-5

SMILES	GI50 (K562)	GI50 (SK-MEL-2)	GI50 (KM12)	GI50 (PC-3)	GI50 (SW-620)	GI50 (UACC-257)	GI50 (T47D)	GI50 (SF-295)	GI50 (OVCAR-3)	GI50 (SK-MEL-5)	GI50 (SR)	GI50 (BT-549)	GI50 (SK-OV-3)	GI50 (RPMI-8226)	GI50 (MDA-N)	GI50 (SF-539)	GI50 (HOP-92)	GI50 (Malme-3M)	GI50 (NCI-H522)	GI50 (OVCAR-5)
COC1/C=C\C=C(/C)C(=O)NC2=CC(=O)C(NCCCl)=C(CC(C)CC(OC)C(O)C(C)/C=C(/C)C1OC(N)=O)C2=O (stereo not drawn)	0.0236 µM (active)	0.147 µM (active)	0.125 µM (active)	0.656 µM (active)	0.0161 µM (active)	0.0363 µM (active)	2.36 µM (inactive)	0.743 µM (active)	0.0853 µM (active)	0.34 µM (active)	0.0341 µM (active)	1.25 µM (inactive)	0.117 µM (active)	0.0977 µM (active)	0.332 µM (active)	0.127 µM (active)	0.384 µM (active)	0.0345 µM (active)	0.0219 µM (active)	0.594 µM (active)
COc1cccc(-c2nnc3c(-c4ccccc4)nc4ccccc4n23)c1	4.11 µM (inactive)	10.1 µM (inactive)	4.94 µM (inactive)	16.4 µM (inactive)	16.4 µM (inactive)	17.9 µM (inactive)	4.35 µM (inactive)	35.6 µM (inactive)	12.7 µM (inactive)	14 µM (inactive)	3.9 µM (inactive)	35.9 µM (inactive)	73.8 µM (inactive)	3.45 µM (inactive)	3.5 µM (inactive)	65.8 µM (inactive)	28 µM (inactive)	10.9 µM (inactive)	3.37 µM (inactive)	> 100 µM (inactive)
CC(C)(C)OC(=O)NCCCNC1(c2cc3ccccc3s2)CCCCC1	10.5 µM (inactive)	17.5 µM (inactive)	17 µM (inactive)	18.8 µM (inactive)	15.5 µM (inactive)	15.8 µM (inactive)	16.7 µM (inactive)	14.8 µM (inactive)	13.8 µM (inactive)	13.9 µM (inactive)	10.2 µM (inactive)	13.6 µM (inactive)	13.2 µM (inactive)	3.84 µM (inactive)	15.1 µM (inactive)	18.4 µM (inactive)	10 µM (inactive)	15.9 µM (inactive)	14.2 µM (inactive)	13.7 µM (inactive)
CC1C2CCC3C(O)C2(CC(O)C2(O)C1CC(O)C2(C)C)CC3(C)O (stereo not drawn)	> 100 µM (inactive)	> 100 µM (inactive)	> 100 µM (inactive)	> 100 µM (inactive)	> 100 µM (inactive)	> 100 µM (inactive)	> 100 µM (inactive)	> 100 µM (inactive)		> 100 µM (inactive)	> 100 µM (inactive)	> 100 µM (inactive)	> 100 µM (inactive)		> 100 µM (inactive)	> 100 µM (inactive)	> 100 µM (inactive)	> 100 µM (inactive)	> 100 µM (inactive)	> 100 µM (inactive)
CC1=C(O)C(O)=C(C2=C(O)C(O)=C(C)C(=O)C2=O)C(=O)C1=O	45.7 µM (inactive)		38.5 µM (inactive)	60.8 µM (inactive)	68.9 µM (inactive)	35.6 µM (inactive)	37.5 µM (inactive)	31.3 µM (inactive)	30.8 µM (inactive)	27.2 µM (inactive)	> 100 µM (inactive)	31 µM (inactive)	37.2 µM (inactive)	34.3 µM (inactive)	40.9 µM (inactive)	33 µM (inactive)	29.9 µM (inactive)	20.8 µM (inactive)	29.3 µM (inactive)	41.6 µM (inactive)
N=C(CSS(=O)(=O)O)NC1CC2CCC1C2 (stereo not drawn)	98.6 µM (inactive)	> 100 µM (inactive)	> 100 µM (inactive)	> 100 µM (inactive)	> 100 µM (inactive)	> 100 µM (inactive)	71.8 µM (inactive)	76.7 µM (inactive)	> 100 µM (inactive)	> 100 µM (inactive)	> 100 µM (inactive)	> 100 µM (inactive)	> 100 µM (inactive)	> 100 µM (inactive)	> 100 µM (inactive)	> 100 µM (inactive)	> 100 µM (inactive)	> 100 µM (inactive)	> 100 µM (inactive)	
N=C1C(O)C2(I)c3ccccc3N3C(=N)C(O)C4c5ccccc5N1C4C32 (stereo not drawn)	26.4 µM (inactive)	> 100 µM (inactive)	15.1 µM (inactive)	41.7 µM (inactive)	52.8 µM (inactive)	> 100 µM (inactive)	> 100 µM (inactive)	47.8 µM (inactive)	32.1 µM (inactive)	30.8 µM (inactive)	34.3 µM (inactive)	> 100 µM (inactive)	40.6 µM (inactive)	40.9 µM (inactive)	42.7 µM (inactive)		37.4 µM (inactive)	21.1 µM (inactive)	25.9 µM (inactive)	> 100 µM (inactive)
Cc1sc2nc3n(c(=O)c2c1C)N=C(c1ccc([N+](=O)[O-])cc1)CS3	> 100 µM (inactive)		> 100 µM (inactive)	> 100 µM (inactive)	> 100 µM (inactive)	> 100 µM (inactive)	> 100 µM (inactive)	> 100 µM (inactive)	> 100 µM (inactive)	> 100 µM (inactive)	> 100 µM (inactive)	56.5 µM (inactive)	> 100 µM (inactive)	> 100 µM (inactive)	> 100 µM (inactive)	> 100 µM (inactive)	> 100 µM (inactive)	> 100 µM (inactive)	> 100 µM (inactive)	> 100 µM (inactive)
Cc1ccc(/N=N/c2c(C)c(C#N)c(=S)n(C3OC(CO)C(O)C(O)C3O)c2C)cc1 (stereo not drawn)	18.4 µM (inactive)	30.6 µM (inactive)	41.1 µM (inactive)	28.2 µM (inactive)	16 µM (inactive)	63 µM (inactive)	23.3 µM (inactive)	36.3 µM (inactive)	29.6 µM (inactive)	17.4 µM (inactive)	26 µM (inactive)	26.2 µM (inactive)	34.7 µM (inactive)	46 µM (inactive)	36.4 µM (inactive)	40.9 µM (inactive)	11.7 µM (inactive)	21.7 µM (inactive)		38.3 µM (inactive)
NC1=CN2c3ccccc3N(CC(=O)N3CCOCC3)C2C=C1 (stereo not drawn)	> 100 µM (inactive)	> 100 µM (inactive)	> 100 µM (inactive)	> 100 µM (inactive)	> 100 µM (inactive)	> 100 µM (inactive)	> 100 µM (inactive)	> 100 µM (inactive)		> 100 µM (inactive)	> 100 µM (inactive)	> 100 µM (inactive)	> 100 µM (inactive)		> 100 µM (inactive)	> 100 µM (inactive)	> 100 µM (inactive)	> 100 µM (inactive)	> 100 µM (inactive)	> 100 µM (inactive)
N#C[C@H](c1nc2ccccc2[nH]1)c1nc2ccccc2nc1Cl	4.2 µM (inactive)		4.35 µM (inactive)	> 25.9 µM (inactive)	6.08 µM (inactive)	> 38.7 µM (inactive)	3.96 µM (inactive)	> 61.4 µM (inactive)	> 100 µM (inactive)	5.98 µM (inactive)	3.09 µM (inactive)	> 28.2 µM (inactive)	> 53.8 µM (inactive)	8.93 µM (inactive)	16.7 µM (inactive)	> 100 µM (inactive)	> 29 µM (inactive)	12.4 µM (inactive)	2.85 µM (inactive)	> 44.3 µM (inactive)
CC(=O)NC1(C)C(C)C2CC1C(C)C2(C)C (stereo not drawn)	> 100 µM (inactive)		> 100 µM (inactive)	> 100 µM (inactive)	> 100 µM (inactive)	> 100 µM (inactive)	> 100 µM (inactive)	> 100 µM (inactive)	> 100 µM (inactive)	> 100 µM (inactive)	> 100 µM (inactive)	> 100 µM (inactive)	> 100 µM (inactive)		> 100 µM (inactive)	> 100 µM (inactive)	> 100 µM (inactive)	> 100 µM (inactive)	> 100 µM (inactive)	> 100 µM (inactive)
CC1=Nc2ccccc2OC(C)=C1/N=N/c1ccc2[nH]c(C)nc2c1	> 100 µM (inactive)	> 100 µM (inactive)	> 100 µM (inactive)	> 100 µM (inactive)	> 100 µM (inactive)	> 100 µM (inactive)	50.9 µM (inactive)	> 100 µM (inactive)	> 100 µM (inactive)		> 100 µM (inactive)	> 100 µM (inactive)	> 100 µM (inactive)	> 100 µM (inactive)	> 100 µM (inactive)	> 100 µM (inactive)	44.1 µM (inactive)	> 100 µM (inactive)	> 100 µM (inactive)	> 100 µM (inactive)
COC(NC(=O)Nc1ccc(C)cc1)(C(F)(F)F)C(F)(F)F	8.39 µM (inactive)		34.7 µM (inactive)	13.9 µM (inactive)	20.4 µM (inactive)		18.7 µM (inactive)	26.5 µM (inactive)	42.8 µM (inactive)	15.6 µM (inactive)	30.9 µM (inactive)	22.9 µM (inactive)	26.1 µM (inactive)	24.6 µM (inactive)	26.4 µM (inactive)	41.4 µM (inactive)	33 µM (inactive)	36.3 µM (inactive)	22 µM (inactive)	34.9 µM (inactive)
CC#CC#C/C=C1/O[C@]2(CCC(OC(C)=O)CO2)[C@@H]2O[C@H]12 (stereo partly drawn)	29.4 µM (inactive)	16.8 µM (inactive)	19.9 µM (inactive)	22.1 µM (inactive)	25.7 µM (inactive)	21.6 µM (inactive)	15.3 µM (inactive)	35.4 µM (inactive)	29.4 µM (inactive)		25.9 µM (inactive)	21.1 µM (inactive)	51.9 µM (inactive)	27.2 µM (inactive)	28.2 µM (inactive)		28.1 µM (inactive)	14.7 µM (inactive)	15.3 µM (inactive)	30.5 µM (inactive)
